Reference: patent US9625448B2, “Double caged GABA compounds, bis-CNB-GABA” (The Trustees of Princeton University, priority 2014, dated 2017)
Where “and” joins values, the source holds several entries; their conditions need not be identical. Equal values may be shown once. Read-outs that look alike come from different tables or passages of the source.

Key:
[1] = tested on: GABAA receptors; assay: Spontaneous IPSC / miniature GABA current amplitude, whole-cell patch recording from cerebellar molecular layer interneurons; type: cell-based
Protocol: Bis-CNB-GABA was applied in vitro. Currents were recorded from cerebellar interneurons. […] FIG. 35 (right) illustrates response traces before and after application of bis-CNB-GABA. FIG. 35 (left) illustrates summary of data. FIG. 36 illustrates effects of 1 mM bis-CNB-GABA on spontaneously evoked miniature glutamate and miniature GABA currents in cerebellar interneuron.
The biological properties of our synthetic bis-CNB-GABA were evaluated using whole-cell patch recording from cerebellar molecular layer interneurons.
FIGS. 43A-43E illustrate quantification of unwanted effects of caged GABA. Referring to FIGS. 43A-43E, first, changes in whole-cell holding current under voltage clamp were monitored while caged GABA compounds were applied by bath application or by local perfusion as per Civillico, E. F.; Shoham, S.; O'Connor, D. H.; Sarkisov, D. V.; Wang, S. S.-H. Cold Spring Harb. Protoc. 2012, which is incorporated herein by reference as if fully set forth). FIG. 43A illustrates voltage-clamp recordings from cerebellar interneurons exposed to caged GABA. Referring to this figure, upper trace corresponds to 1 mM bis-CNB-GABA; middle trace corresponds to 0.1 mM mono-O-CNB-GABA; bottom trace corresponds to 1 mM DPNI-GABA. Referring to FIG. 43A, (right) expanded traces illustrating the detailed effects on steady-state holding current and fluctuations in holding current were observed. FIG. 43B illustrates effects of caged GABA on spontaneous IPSCs and excitatory postsynaptic currents (EPSCs). Referring to FIG. 43B, IPSCs and EPSCs were identified and separated based on kinetic criteria. FIG. 43B (left) illustrates box plots of spontaneous postsynaptic current amplitudes in control conditions and in the presence of 1 mM bis-CNB-GABA. Referring to FIG. 43B (left), boxes show interquartile range and whiskers show full range of values. FIG. 43B (right) illustrates individual traces (gray) and average (block) of detected spontaneous IPSCs and EPSCs. FIG. 43C illustrates dependence of spontaneous IPSC amplitude on bis-CNB-GABA concentration. […] FIG. 43D illustrates comparison of effects of mono-O-CNB-GABA (0.1 mM) and bis-CNB-GABA (1.0 mM, except for 0.4 mM for IPSCs) on spontaneous IPSC amplitude, standard deviation of holding current (noise), and holding current (Ihold). FIG. 43E illustrates spontaneous EPSC size was unaffected by bis-CNB-GABA at all concentrations tested. Referring to FIGS. 43A and 43D, under these conditions, mono-O-CNB-GABA (0.1 mM) led to increases of 66±47 pA (mean±SD, n=6) in inward holding current at −60 mV (Ihold). This inward current presumably arises either via indirectly evoked increases in excitation or from direct activation of GABAA receptors (by residual free GABA in the caged compound solution or by mono-O-CNB-GABA, which may itself have partial agonist activity). See Dellal., S. S.; Luo, R.; Otis, T. S. J. Neurophysiol., 2012, 107, 2958-2970, which is incorporated herein by reference as if fully set forth.
Referring to FIG. 43B, the effects of bis-CNB-GABA on spontaneous IPSCs was next measured. […] Referring to FIG. 43B, in contrast, addition of bis-CNB-GABA served to reduce GABA current amplitudes by approximately one-third (FIG. 43B, top; 0.4 to 2.0 mM; ratio of amplitudes during drug/control: 0.68±0.17, n=14). […] This IC50 is, in fact, a lower bound; the material tested was crude product, which may contain minute amounts of mono-CNB-GABA.

[2] = 1994, cited from earlier work
[3] = tested on: cerebellar interneurons; assay: Whole-cell holding current under voltage clamp in cerebellar interneurons exposed to caged GABA; type: cell-based
Text: FIGS. 43A-43E illustrate quantification of unwanted effects of caged GABA. Referring to FIGS. 43A-43E, first, changes in whole-cell holding current under voltage clamp were monitored while caged GABA compounds were applied by bath application or by local perfusion as per Civillico, E. F.; Shoham, S.; O'Connor, D. H.; Sarkisov, D. V.; Wang, S. S.-H. Cold Spring Harb. Protoc. 2012, which is incorporated herein by reference as if fully set forth). FIG. 43A illustrates voltage-clamp recordings from cerebellar interneurons exposed to caged GABA. Referring to this figure, upper trace corresponds to 1 mM bis-CNB-GABA; middle trace corresponds to 0.1 mM mono-O-CNB-GABA; bottom trace corresponds to 1 mM DPNI-GABA. Referring to FIG. 43A, (right) expanded traces illustrating the detailed effects on steady-state holding current and fluctuations in holding current were observed. FIG. 43B illustrates effects of caged GABA on spontaneous IPSCs and excitatory postsynaptic currents (EPSCs). Referring to FIG. 43B, IPSCs and EPSCs were identified and separated based on kinetic criteria. FIG. 43B (left) illustrates box plots of spontaneous postsynaptic current amplitudes in control conditions and in the presence of 1 mM bis-CNB-GABA. Referring to FIG. 43B (left), boxes show interquartile range and whiskers show full range of values. FIG. 43B (right) illustrates individual traces (gray) and average (block) of detected spontaneous IPSCs and EPSCs. FIG. 43C illustrates dependence of spontaneous IPSC amplitude on bis-CNB-GABA concentration. […]
Referring to FIG. 43D, in contrast, application of bis-CNB-GABA (raw product, 0.4 to 2.0 mM) evoked no detectable change in the holding current (ratio of holding current drug/control=1.0±0.3, n=14, p=0.7, Mann-Whitney test) or in its standard deviation, which is a measure of steady-state channel noise (from 3.0±0.5 to 3.2±0.8 pA, n=14, p=0.3) measured during periods of no spontaneous currents. […]

[4] = physchem; type: physicochemical; conditions: for rate of spontaneous photoproduct / GABA production: aqueous buffer, 23° C., 12 mM, pH 7.4, fluorescent room lights, first 8 days
Protocol: The hydrolytic stability of bis-CNB-GABA under normal handling conditions was examined. Accordingly, we prepared samples of bis-CNB-GABA and mono-O-CNB-GABA were prepared in aqueous buffer (23° C., 12 mM, pH=7.4), stored the samples under fluorescent room lights, and determined accumulation of deprotected GABA at 1-day intervals.
FIGS. 44A-44B illustrate accumulation of GABA in ambient room light. FIG. 44A illustrates 1H NMR data used to quantify GABA accumulation. Top, bis-CNB-GABA before light exposure. Arrows denote methylene peaks of bis-CNB-GABA. Peaks at ˜3.45 ppm and ˜3.2 ppm in each spectrum correspond to dimethoxyethane, used as an internal standard. Bottom, The teal overlay indicates the post-photolysis spectrum of bis-CNB-GABA after 17 days of exposure to ambient fluorescent light. Arrows denote the two visible peaks corresponding to a combination of GABA and mono-N-CNB-GABA photoproducts. Note the lack of extraneous peaks in the 0-4 ppm range after light exposure. The dominant final photoproduct of bis-CNB-GABA was GABA, as identified using ^1H NMR. FIG. 44A illustrates 1H NMR data used to quantify GABA accumulation. Referring to this figure (top), bis-CNB-GABA before light exposure. Arrows denote methylene peaks of bis-CNB-GABA. Still referring to FIG. 44A, peaks at ˜3.45 ppm and ˜3.2 ppm in each spectrum correspond to dimethoxyethane, used as an internal standard. Still referring to FIG. 44A (bottom), the teal overlay indicates the post-photolysis spectrum of bis-CNB-GABA after 17 days of exposure to ambient fluorescent light. Arrows denote the two visible peaks corresponding to a combination of GABA and mono-N-CNB-GABA photoproducts. The lack of extraneous peaks in the 0-4 ppm range was observed after light exposure. The combined amount of mono-decaging (N-CNB-GABA) and double-decaging (GABA) photoproduct was quantified using the integrated multiplet at 2.15 ppm, with dimethoxyethane (singlet peaks at 3.20 and 3.45 ppm) as a standard.

O=C(CCCNC(C(=O)O)c1ccccc1[N+](=O)[O-])OC(C(=O)O)c1ccccc1[N+](=O)[O-] (centres unmarked) [bis-CNB-GABA, 2-((4-(Carboxy(2-nitrophenyl)methoxy)-4-oxobutyl)amino)-2-(2-nitrophenyl)acetic acid]
concentration generating 33% reduction in response [1]: 1 mM | effects on holding current, IPSCs, or EPSCs ([1]; 1 mM): minimal or no effects | decrease in miniature GABA response amplitude / reduction of GABA currents ([1]; 1 mM, cerebellar interneuron): ~33% | ratio of GABA current (spontaneous IPSC) amplitudes during drug/control ([1]; 0.4 to 2.0 mM, n=14): 0.68±0.17 | Kd ([1]; FIG. 43C, read-out: KD of fit, dependence of spontaneous IPSC amplitude on concentration): 2500 ± 200 µM | IC50 ([1]; Table 1, calculated from q=[j]/[j]+IC50, read-out: IC50): 2000 µM | IC33 ([1]; Table 1, calculated, q=0.33): 1.0 | IC50 ([1]; Table 2, the data herein, read-out: IC50 in blocking synaptic GABAA currents): ≥ 2500 µM | 10-90% rise time of IPSCs ([1]; during bis-CNB-GABA application, control 0.44±0.13 ms): 0.44±0.11 ms | IC50 ([1]; read-out: estimated IC50 from concentration-dependence of the reduction of spontaneous IPSC amplitude, crude product, stated to be a lower bound): ≥ 2500 µM | antagonist activity at submillimolar concentrations ([1]; submillimolar concentrations): virtually no antagonist activity | fold less antagonistic binding compared to CDNI-GABA ([1]; vs CDNI-GABA): 4 fold | fold less antagonism compared to DPNI-GABA ([1]; vs DPNI-GABA): 4 fold | fold lower affinity / reduction of antagonism compared to mono-caged analog ([1]; vs mono-CNB-GABA): 70 fold and 100 fold | dark reaction time ([2]; N-position, Wieboldt et al.): 1.5 ms | standard deviation of holding current (steady-state channel noise) ([3]; 0.4 to 2.0 mM, control 3.0±0.5 pA, n=14): 3.2±0.8 pA | ratio of holding current drug/control ([3]; raw product, 0.4 to 2.0 mM, n=14): 1.0±0.3 | rate of spontaneous photoproduct / GABA production [4]: 1.5±0.1 %/day | half-life at 12 mM ([4]; buffer, pH 7.4): 98 days | accumulation of GABA ([4]; during a week in the light): less than 1% | estimated production of N-CNB-GABA ([4]; during a week in the light): 10%

NCCCC(=O)OC(C(=O)O)c1ccccc1[N+](=O)[O-] (centres unmarked) [mono-CNB-GABA]
effect on rate of spontaneous IPSCs ([1]; 1 mM): dramatic decrease | uncaging speed ([2]; Gee et al.): microsecond range | increase in inward holding current at −60 mV (Ihold) ([3]; 0.1 mM, mean±SD, n=6): 66±47 pA | rate of spontaneous photoproduct / GABA production [4]: 1.0±0.2 %/day | extrapolated half-life t1/2 ([4]; buffer, pH 7.4): 138 days
